Experimental data published in PubChem BioAssay (NCI).
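Cultured in 96-well plates, cells were exposed to test compound for 48 hours across five concentrations. Definition used: TGI = concentration required for complete inhibition of growth.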

Tests used:
Assay in all cases: NCI tumour cell line growth inhibition, 48 h
EKVX NSCLC = test system: EKVX NSCLC
SF-539 CNS = test system: SF-539 CNS
SK-MEL-28 melanoma = test system: SK-MEL-28 melanoma
DLD-1 colon = test system: DLD-1 colon
HL-60(TB) leukemia = test system: HL-60(TB) leukemia
IGROV1 ovarian = test system: IGROV1 ovarian
MOLT-4 leukemia = test system: MOLT-4 leukemia
KM12 colon = test system: KM12 colon
KM20L2 colon = test system: KM20L2 colon
LXFL 529 NSCLC = test system: LXFL 529 NSCLC
SNB-78 CNS = test system: SNB-78 CNS
HCC-2998 colon = test system: HCC-2998 colon
UO-31 renal = test system: UO-31 renal
LOX IMVI melanoma = test system: LOX IMVI melanoma
ACHN renal = test system: ACHN renal
A549 NSCLC = test system: A549 NSCLC
NCI-H23 lung = test system: NCI-H23 lung
SK-OV-3 ovarian = test system: SK-OV-3 ovarian
HT29 colon = test system: HT29 colon
NCI-H522 lung = test system: NCI-H522 lung
DMS 273 small cell lung = test system: DMS 273 small cell lung
SF-295 CNS = test system: SF-295 CNS
OVCAR-8 ovarian = test system: OVCAR-8 ovarian
UACC-62 melanoma = test system: UACC-62 melanoma
SN12C renal = test system: SN12C renal
SR leukemia = test system: SR leukemia
UACC-257 melanoma = test system: UACC-257 melanoma
SNB-75 CNS = test system: SNB-75 CNS
M19-MEL melanoma = test system: M19-MEL melanoma
HCT-15 colon = test system: HCT-15 colon
U251 CNS = test system: U251 CNS
SNB-19 CNS = test system: SNB-19 CNS
HOP-62 NSCLC = test system: HOP-62 NSCLC
786-0 renal = test system: 786-0 renal
RXF 393 renal = test system: RXF 393 renal
NCI-H226 lung = test system: NCI-H226 lung
DMS 114 small cell lung = test system: DMS 114 small cell lung
SF-268 CNS = test system: SF-268 CNS
M14 melanoma = test system: M14 melanoma
COLO 205 colon = test system: COLO 205 colon
NCI-H460 lung = test system: NCI-H460 lung
OVCAR-3 ovarian = test system: OVCAR-3 ovarian
K-562 leukemia = test system: K-562 leukemia
MALME-3M melanoma = test system: MALME-3M melanoma
HCT-116 colon = test system: HCT-116 colon
TK-10 renal = test system: TK-10 renal
SW-620 colon = test system: SW-620 colon
RPMI-8226 leukemia = test system: RPMI-8226 leukemia
CCRF-CEM leukemia = test system: CCRF-CEM leukemia
BT-549 breast = test system: BT-549 breast
OVCAR-5 ovarian = test system: OVCAR-5 ovarian
MDA-N = test system: MDA-N
MCF7 breast = test system: MCF7 breast
SK-MEL-5 melanoma = test system: SK-MEL-5 melanoma
HS 578T breast = test system: HS 578T breast
NCI/ADR-RES ovarian = test system: NCI/ADR-RES ovarian
MDA-MB-231 breast = test system: MDA-MB-231 breast
T-47D breast = test system: T-47D breast
MDA-MB-435 = test system: MDA-MB-435
DU-145 prostate = test system: DU-145 prostate
HOP-92 NSCLC = test system: HOP-92 NSCLC
CAKI-1 renal = test system: CAKI-1 renal
A498 renal = test system: A498 renal
OVCAR-4 ovarian = test system: OVCAR-4 ovarian
SK-MEL-2 melanoma = test system: SK-MEL-2 melanoma
PC-3 prostate = test system: PC-3 prostate

## CC(=O)Nc1ccc2c(c1)C(=O)c1ccccc1-2
EKVX NSCLC
  TGI: > 100 µM
SF-539 CNS
  TGI: > 100 µM
SK-MEL-28 melanoma
  TGI: > 100 µM
DLD-1 colon
  TGI: > 100 µM
HL-60(TB) leukemia
  TGI: > 100 µM
IGROV1 ovarian
  TGI: > 100 µM
MOLT-4 leukemia
  TGI: > 100 µM
KM12 colon
  TGI: > 100 µM
KM20L2 colon
  TGI: > 100 µM
LXFL 529 NSCLC
  TGI: > 100 µM
SNB-78 CNS
  TGI: > 100 µM
HCC-2998 colon
  TGI: > 100 µM
UO-31 renal
  TGI: > 100 µM
LOX IMVI melanoma
  TGI: > 100 µM
ACHN renal
  TGI: > 100 µM
A549 NSCLC
  TGI: > 100 µM
NCI-H23 lung
  TGI: > 100 µM
SK-OV-3 ovarian
  TGI: > 100 µM
HT29 colon
  TGI: > 100 µM
NCI-H522 lung
  TGI: > 100 µM
DMS 273 small cell lung
  TGI: > 100 µM
SF-295 CNS
  TGI: > 100 µM
OVCAR-8 ovarian
  TGI: > 100 µM
UACC-62 melanoma
  TGI: > 100 µM
SN12C renal
  TGI: > 100 µM
SR leukemia
  TGI: > 100 µM
UACC-257 melanoma
  TGI: > 100 µM
SNB-75 CNS
  TGI: > 100 µM
M19-MEL melanoma
  TGI: > 100 µM
HCT-15 colon
  TGI: > 100 µM
U251 CNS
  TGI: > 100 µM
SNB-19 CNS
  TGI: > 100 µM
HOP-62 NSCLC
  TGI: > 100 µM
786-0 renal
  TGI: > 100 µM
RXF 393 renal
  TGI: > 100 µM
NCI-H226 lung
  TGI: > 100 µM
DMS 114 small cell lung
  TGI: > 100 µM
SF-268 CNS
  TGI: > 100 µM
M14 melanoma
  TGI: > 100 µM
COLO 205 colon
  TGI: > 100 µM
NCI-H460 lung
  TGI: > 100 µM
OVCAR-3 ovarian
  TGI: > 100 µM
K-562 leukemia
  TGI: > 100 µM
MALME-3M melanoma
  TGI: > 100 µM
HCT-116 colon
  TGI: > 100 µM
TK-10 renal
  TGI: > 100 µM
SW-620 colon
  TGI: > 100 µM
RPMI-8226 leukemia
  TGI: > 100 µM
CCRF-CEM leukemia
  TGI: > 100 µM

## CCc1nc(N)nc(N)c1-c1ccc(N2CCOCC2)c(N=[N+]=[N-])c1
EKVX NSCLC
  TGI: > 100 µM
BT-549 breast
  TGI: > 100 µM
SF-539 CNS
  TGI: > 100 µM
SK-MEL-28 melanoma
  TGI: > 100 µM
OVCAR-5 ovarian
  TGI: > 100 µM
HL-60(TB) leukemia
  TGI: > 79.2 µM
IGROV1 ovarian
  TGI: > 100 µM
MOLT-4 leukemia
  TGI: > 100 µM
KM12 colon
  TGI: > 100 µM
MDA-N
  TGI: > 100 µM
MCF7 breast
  TGI: > 100 µM
SK-MEL-5 melanoma
  TGI: > 100 µM
HCC-2998 colon
  TGI: > 100 µM
HS 578T breast
  TGI: > 100 µM
UO-31 renal
  TGI: > 100 µM
LOX IMVI melanoma
  TGI: > 100 µM
ACHN renal
  TGI: > 100 µM
A549 NSCLC
  TGI: > 100 µM
NCI/ADR-RES ovarian
  TGI: > 100 µM
NCI-H23 lung
  TGI: > 83.7 µM
SK-OV-3 ovarian
  TGI: > 100 µM
HT29 colon
  TGI: > 100 µM
MDA-MB-231 breast
  TGI: > 100 µM
NCI-H522 lung
  TGI: 37.9 µM
SF-295 CNS
  TGI: > 100 µM
OVCAR-8 ovarian
  TGI: > 100 µM
T-47D breast
  TGI: > 100 µM
UACC-62 melanoma
  TGI: > 100 µM
SN12C renal
  TGI: > 100 µM
SR leukemia
  TGI: > 80.9 µM
UACC-257 melanoma
  TGI: > 100 µM
SNB-75 CNS
  TGI: > 100 µM
MDA-MB-435
  TGI: > 100 µM
DU-145 prostate
  TGI: > 100 µM
HOP-92 NSCLC
  TGI: > 100 µM
HCT-15 colon
  TGI: > 100 µM
U251 CNS
  TGI: > 100 µM
CAKI-1 renal
  TGI: > 100 µM
A498 renal
  TGI: > 100 µM
SNB-19 CNS
  TGI: > 78.4 µM
HOP-62 NSCLC
  TGI: > 100 µM
OVCAR-4 ovarian
  TGI: > 100 µM
786-0 renal
  TGI: > 100 µM
RXF 393 renal
  TGI: > 100 µM
NCI-H226 lung
  TGI: > 100 µM
SF-268 CNS
  TGI: > 100 µM
M14 melanoma
  TGI: > 100 µM
SK-MEL-2 melanoma
  TGI: > 100 µM
COLO 205 colon
  TGI: > 100 µM
PC-3 prostate
  TGI: > 100 µM
NCI-H460 lung
  TGI: > 100 µM
OVCAR-3 ovarian
  TGI: > 100 µM
K-562 leukemia
  TGI: > 90.6 µM
HCT-116 colon
  TGI: > 100 µM
TK-10 renal
  TGI: > 100 µM
SW-620 colon
  TGI: > 100 µM
RPMI-8226 leukemia
  TGI: > 100 µM
CCRF-CEM leukemia
  TGI: > 100 µM
